From patent US20260193238A1, “PHARMACEUTICAL COMPOUNDS AS PARP7 AND/OR PARP1 INHIBITORS” (Duke Street Bio Limited, priority 2022, published 2026)

molecular target: PARP1 (Homo sapiens, UniProt P09874); experiment: PARP1 biochemical DELFIA assay (auto-PARylation); settings: Table 1A
Sequence (P09874 whole entry): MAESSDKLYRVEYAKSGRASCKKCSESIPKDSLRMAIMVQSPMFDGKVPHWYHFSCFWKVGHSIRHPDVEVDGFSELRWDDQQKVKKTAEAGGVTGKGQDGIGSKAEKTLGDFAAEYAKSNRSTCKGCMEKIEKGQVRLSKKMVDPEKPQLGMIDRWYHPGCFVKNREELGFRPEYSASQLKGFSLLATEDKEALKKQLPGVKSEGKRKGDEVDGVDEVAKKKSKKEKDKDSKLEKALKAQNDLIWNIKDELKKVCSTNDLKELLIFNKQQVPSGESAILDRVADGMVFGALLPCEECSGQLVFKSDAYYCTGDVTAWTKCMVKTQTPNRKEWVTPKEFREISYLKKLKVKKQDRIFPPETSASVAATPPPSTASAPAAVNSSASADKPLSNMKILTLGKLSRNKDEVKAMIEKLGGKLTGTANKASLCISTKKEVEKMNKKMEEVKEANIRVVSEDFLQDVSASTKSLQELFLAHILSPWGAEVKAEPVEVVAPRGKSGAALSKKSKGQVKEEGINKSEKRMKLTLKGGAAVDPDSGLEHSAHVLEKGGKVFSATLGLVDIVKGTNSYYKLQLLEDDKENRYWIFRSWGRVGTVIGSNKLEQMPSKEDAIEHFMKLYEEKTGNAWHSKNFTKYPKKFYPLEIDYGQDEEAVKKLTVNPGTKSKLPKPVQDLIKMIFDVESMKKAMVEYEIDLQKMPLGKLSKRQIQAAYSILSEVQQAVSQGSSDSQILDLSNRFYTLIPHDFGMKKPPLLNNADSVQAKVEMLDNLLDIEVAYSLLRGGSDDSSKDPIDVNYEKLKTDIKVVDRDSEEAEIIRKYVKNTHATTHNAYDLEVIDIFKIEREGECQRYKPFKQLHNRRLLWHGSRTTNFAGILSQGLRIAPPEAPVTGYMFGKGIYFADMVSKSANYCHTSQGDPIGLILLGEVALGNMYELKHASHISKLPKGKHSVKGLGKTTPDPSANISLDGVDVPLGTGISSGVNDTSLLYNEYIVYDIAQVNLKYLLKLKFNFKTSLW
Protocol: Prior to assay, wells were washed 3×5 min in coating wash buffer.
% data was fitted to a non-linear regression equation (log inhibitor vs response-variable slope 4-parameters) to obtain IC50 values.

First: N#Cc1cc(C2CCCN2CC(=O)N2CCN(c3ncc(C(F)(F)F)cn3)CC2)n[nH]c1=O (single isomer, unassigned) [Compound 98b, 3-oxo-6-(1-(2-oxo-2-(4-(5-(trifluoromethyl)pyrimidin-2-yl)piperazin-1-yl)ethyl)pyrrolidin-2-yl)-2,3-dihydropyridazine-4-carbonitrile]
Second: N#Cc1cc(C2CCCN2CC(=O)N2CC(Nc3ncc(C(F)(F)F)cn3)C2)n[nH]c1=O (single isomer, unassigned) [Compound 123a]
The IC50 of the first is higher: 1000 to 10000 nM for the first, 10 to 100 nM for the second.

`O=C(CN1CCCC1c1cc(C(F)(F)F)c(=O)[nH]n1)N1CCN(c2nc3cc(Cl)ccc3o2)CC1` (single isomer, unassigned) [Compound 99a] and `N#Cc1ccc2oc(N3CCN(C(=O)CN4CCCC4c4cc(C(F)(F)F)c(=O)[nH]n4)CC3)nc2c1` (single isomer, unassigned) [Compound 100a] cannot be ordered by IC50: no more than 10 nM for the first, 10 to 100 nM for the second.

First: O=C(CN1CCCC1c1cc(C(F)(F)F)c(=O)[nH]n1)N1CCN(c2nc3cc(Cl)ccc3o2)CC1 (single isomer, unassigned) [Compound 99b]
Second: N#Cc1ccc2oc(N3CCN(C(=O)CN4CCCC4c4cc(C(F)(F)F)c(=O)[nH]n4)CC3)nc2c1 (single isomer, unassigned) [Compound 100b]
The IC50 of the first is higher: 1000 to 10000 nM for the first, 100 to 1000 nM for the second.

Compared with `O=C(CN1CCCC1c1cc(C(F)(F)F)c(=O)[nH]n1)N1CCC2(CC1)CN(c1ncc(C(F)(F)F)cn1)C2` (single isomer, unassigned) [Compound 101b], `O=C(CN1CCCC1c1cc(C(F)(F)F)c(=O)[nH]n1)N1CC2(CCN(c3ncc(C(F)(F)F)cn3)CC2)C1` (single isomer, unassigned) [Compound 110b] is higher in IC50: 100 to 1000 nM for the first, 1000 to 10000 nM for the second. The first is the more potent here.

First: Cc1[nH]c(=O)c(C(F)(F)F)cc1C1CCCN1CC(=O)N1CCN(c2ncc(C(F)(F)F)cn2)CC1 (single isomer, unassigned) [Compound 102a, 6-methyl-5-(1-(2-oxo-2-(4-(5-(trifluoromethyl)pyrimidin-2-yl)piperazin-1-yl)ethyl)pyrrolidin-2-yl)-3-(trifluoromethyl)pyridin-2(1H)-one]
Second: CCc1[nH]c(=O)c(C(F)(F)F)cc1C1CCCN1CC(=O)N1CCN(c2ncc(C(F)(F)F)cn2)CC1 (single isomer, unassigned) [Compound 105a]
The IC50 of the first is lower: 100 to 1000 nM for the first, 1000 to 10000 nM for the second. The first is the more potent here.

`Cc1[nH]c(=O)c(C(F)(F)F)cc1C1CCCN1CC(=O)N1CCN(c2ncc(C(F)(F)F)cn2)CC1` (single isomer, unassigned) [Compound 102b, 6-methyl-5-(1-(2-oxo-2-(4-(5-(trifluoromethyl)pyrimidin-2-yl)piperazin-1-yl)ethyl)pyrrolidin-2-yl)-3-(trifluoromethyl)pyridin-2(1H)-one] and `CCc1[nH]c(=O)c(C(F)(F)F)cc1C1CCCN1CC(=O)N1CCN(c2ncc(C(F)(F)F)cn2)CC1` (single isomer, unassigned) [Compound 105b] fall in the same range of IC50: 1000 to 10000 nM for the first, 1000 to 10000 nM for the second.

Compared with `O=C(CN1Cc2ccccc2C1c1cc(C(F)(F)F)c(=O)[nH]n1)N1CCN(c2ncc(C(F)(F)F)cn2)CC1` (single isomer, unassigned) [Compound 104a, 6-(2-(2-oxo-2-(4-(5-(trifluoromethyl)pyrimidin-2-yl)piperazin-1-yl)ethyl)isoindolin-1-yl)-4-(trifluoromethyl)pyridazin-3(2H)-one], `O=C(CN1Cc2ccccc2C1c1cc(C(F)(F)F)c(=O)[nH]n1)N1CC(Oc2ncc(C(F)(F)F)cn2)C1` (single isomer, unassigned) [Compound 114b] is higher in IC50: 100 to 1000 nM for the first, 1000 to 10000 nM for the second.

`O=C(CN1Cc2ccccc2C1c1cc(C(F)(F)F)c(=O)[nH]n1)N1CCN(c2ncc(C(F)(F)F)cn2)CC1` (single isomer, unassigned) [Compound 104b, 6-(2-(2-oxo-2-(4-(5-(trifluoromethyl)pyrimidin-2-yl)piperazin-1-yl)ethyl)isoindolin-1-yl)-4-(trifluoromethyl)pyridazin-3(2H)-one] and `O=C(CN1CCCC1c1cc(C(F)(F)F)c(=O)[nH]n1)N1CC2(C1)CN(c1ncc(C(F)(F)F)cn1)C2` (single isomer, unassigned) [Compound 106b] fall in the same range of IC50: 1000 to 10000 nM for the first, 1000 to 10000 nM for the second.

Compared with `CN(c1ncc(C(F)(F)F)cn1)C1CCN(C(=O)CN2CCCC2c2cc(C(F)(F)F)c(=O)[nH]n2)CC1` (single isomer, unassigned) [Compound 107a], `O=C(CN1CCCC1c1cc(C(F)(F)F)c(=O)[nH]n1)N1CCN(c2ncc(OC(F)F)cn2)CC1` (single isomer, unassigned) [Compound 118a] is lower in IC50: 1000 to 10000 nM for the first, no more than 10 nM for the second. The second is the more potent here.

First: CN(c1ncc(C(F)(F)F)cn1)C1CCN(C(=O)CN2CCCC2c2cc(C(F)(F)F)c(=O)[nH]n2)CC1 (single isomer, unassigned) [Compound 107b]
Second: O=C(CN1CCCC1c1cc(C(F)(F)F)c(=O)[nH]n1)N1CCN(c2ncc(OC(F)F)cn2)CC1 (single isomer, unassigned) [Compound 118b]
The IC50 of the first is higher: greater than 10000 nM for the first, 1000 to 10000 nM for the second.

Compared with `N#Cc1cc(C2CCCN2CC(=O)N2CCN(c3nc4ccc(F)cc4o3)CC2)n[nH]c1=O` (single isomer, unassigned) [Compound 111a], `N#Cc1cc(C2CCCN2CC(=O)N2CCN(c3nc4cc(Cl)ccc4o3)CC2)n[nH]c1=O` (single isomer, unassigned) [Compound 121a] is higher in IC50: 10 to 100 nM for the first, 100 to 1000 nM for the second.

First: O=C(CN1CCCC1c1cc(C(F)(F)F)c(=O)[nH]n1)N1CCN(c2ncc(F)cc2Cl)CC1 (single isomer, unassigned) [Compound 116b]
Second: O=C(CN1CCCC1c1cc(C(F)(F)F)c(=O)[nH]n1)N1CCN(c2ncc(Cl)cc2Cl)CC1 (single isomer, unassigned) [Compound 125a]
The IC50 of the first is higher: 1000 to 10000 nM for the first, 100 to 1000 nM for the second.

`O=C(CN1CCCC1c1cc(C(F)(F)F)c(=O)[nH]n1)N1CCN(c2nc3ccccn3n2)CC1` (single isomer, unassigned) [Compound 117a] and `O=C(CN1CCCC1c1cc(C(F)(F)F)c(=O)[nH]n1)N1CCN(c2ccc(C(F)F)cn2)CC1` (single isomer, unassigned) [Compound 126a] cannot be ordered by IC50: no more than 10 nM for the first, 10 to 100 nM for the second.

First: Cn1c(N2CCN(C(=O)CN3CCCC3c3cc(C(F)(F)F)c(=O)[nH]n3)CC2)nc2ccc(F)cc21 (single isomer, unassigned) [Compound 119b]
Second: O=C(CN1CCCC1c1cc(C(F)(F)F)c(=O)[nH]n1)N1CCN(c2ccc(C(F)F)cn2)CC1 (single isomer, unassigned) [Compound 126b]
The IC50 of the first is higher: greater than 10000 nM for the first, 1000 to 10000 nM for the second.

`O=C(CN1CCCC1c1cc(C(F)(F)F)c(=O)[nH]n1)N1CCN(c2ncc(F)cc2C(F)(F)F)CC1` (single isomer, unassigned) [Compound 120a] and `N#Cc1cnc(N2CCN(C(=O)CN3CCCC3c3cc(C(F)(F)F)c(=O)[nH]n3)CC2)c(C(F)(F)F)c1` (single isomer, unassigned) [Compound 124b] fall in the same range of IC50: 1000 to 10000 nM for the first, 1000 to 10000 nM for the second.

First: O=C(CN1CCCC1c1cc(C(F)(F)F)c(=O)[nH]n1)N1CCN(c2ncc(F)cc2C(F)(F)F)CC1 (single isomer, unassigned) [Compound 120b]
Second: O=C(CN1CCCC1c1cc(C(F)(F)F)c(=O)[nH]n1)N1CCN(c2ncc(Cl)cc2Cl)CC1 (single isomer, unassigned) [Compound 125b]
The IC50 of the first is higher: greater than 10000 nM for the first, 1000 to 10000 nM for the second.

In the case of `N#Cc1cc(C2CCCN2CC(=O)N2CCN(c3nc4cc(Cl)ccc4o3)CC2)n[nH]c1=O` (single isomer, unassigned) [Compound 121b], the IC50 is reported as 1000 to 10000 nM.
